According to the NIST ThermoML archive (doi:10.1021/je060271a):

Conditions: 283.15 K, Liquid, Vibrating tube method

CCCC(=O)OCC(COC(=O)CCC)(COC(=O)CCC)COC(=O)CCC [pentaerythritol tetrabutyrate]
Conditions | mass density [kg/m3]
5069.8 kPa | 1062.1
5785 kPa | 1062.4
5790.3 kPa | 1062.5
5796.4 kPa | 1062.5
6791.4 kPa | 1063
7204.6 kPa | 1063.2
7259.3 kPa | 1063.3
7320.1 kPa | 1063.4
7411.4 kPa | 1063.4
7437.1 kPa | 1063.4
7462.9 kPa | 1063.3
7545.9 kPa | 1063.4
7572.6 kPa | 1063.5
7606 kPa | 1063.5
7632.9 kPa | 1063.5
7657.7 kPa | 1063.5
7681.7 kPa | 1063.5
7710.4 kPa | 1063.4
7734.6 kPa | 1063.6
8293.1 kPa | 1063.8
11358 kPa | 1065.7
11377 kPa | 1065.7
11399 kPa | 1065.7
11419 kPa | 1065.6
11438 kPa | 1065.6
11456 kPa | 1065.7
11667 kPa | 1065.7
11687 kPa | 1066
11708 kPa | 1065.9
11731 kPa | 1065.8
11751 kPa | 1065.9
11775 kPa | 1066
11795 kPa | 1066
11816 kPa | 1065.9
11836 kPa | 1065.9
11862 kPa | 1065.9
11882 kPa | 1065.9
11903 kPa | 1065.9
11928 kPa | 1066
11949 kPa | 1066
11995 kPa | 1065.9
12016 kPa | 1066
13152 kPa | 1066.7
13178 kPa | 1066.7
13234 kPa | 1066.6
13898 kPa | 1067.1
15509 kPa | 1068
15590 kPa | 1068
15620 kPa | 1068.1
15664 kPa | 1068.1
15701 kPa | 1068
15739 kPa | 1068
15784 kPa | 1068.2
15822 kPa | 1068.1
15860 kPa | 1068.2
15906 kPa | 1068.2
17727 kPa | 1069.2
17738 kPa | 1069.3
17748 kPa | 1069.2
17759 kPa | 1069.3
17769 kPa | 1069.2
17778 kPa | 1069.1
18091 kPa | 1069.4
18103 kPa | 1069.5
18112 kPa | 1069.4
18122 kPa | 1069.4
18135 kPa | 1069.5
18145 kPa | 1069.4
18166 kPa | 1069.5
18176 kPa | 1069.4
18264 kPa | 1069.5
18274 kPa | 1069.6
18296 kPa | 1069.4
